The results in this text go back to ChEMBL document CHEMBL3779883, “Design and Synthesis of Nonpeptide Inhibitors of Hepatocyte Growth Factor Activation” (ACS Med Chem Lett, 2016).

Data set [1] concerns the target T1, Suppressor of tumorigenicity 14 protein (Homo sapiens, UniProt Q9Y5Y6).
T1 sequence (Q9Y5Y6 whole entry): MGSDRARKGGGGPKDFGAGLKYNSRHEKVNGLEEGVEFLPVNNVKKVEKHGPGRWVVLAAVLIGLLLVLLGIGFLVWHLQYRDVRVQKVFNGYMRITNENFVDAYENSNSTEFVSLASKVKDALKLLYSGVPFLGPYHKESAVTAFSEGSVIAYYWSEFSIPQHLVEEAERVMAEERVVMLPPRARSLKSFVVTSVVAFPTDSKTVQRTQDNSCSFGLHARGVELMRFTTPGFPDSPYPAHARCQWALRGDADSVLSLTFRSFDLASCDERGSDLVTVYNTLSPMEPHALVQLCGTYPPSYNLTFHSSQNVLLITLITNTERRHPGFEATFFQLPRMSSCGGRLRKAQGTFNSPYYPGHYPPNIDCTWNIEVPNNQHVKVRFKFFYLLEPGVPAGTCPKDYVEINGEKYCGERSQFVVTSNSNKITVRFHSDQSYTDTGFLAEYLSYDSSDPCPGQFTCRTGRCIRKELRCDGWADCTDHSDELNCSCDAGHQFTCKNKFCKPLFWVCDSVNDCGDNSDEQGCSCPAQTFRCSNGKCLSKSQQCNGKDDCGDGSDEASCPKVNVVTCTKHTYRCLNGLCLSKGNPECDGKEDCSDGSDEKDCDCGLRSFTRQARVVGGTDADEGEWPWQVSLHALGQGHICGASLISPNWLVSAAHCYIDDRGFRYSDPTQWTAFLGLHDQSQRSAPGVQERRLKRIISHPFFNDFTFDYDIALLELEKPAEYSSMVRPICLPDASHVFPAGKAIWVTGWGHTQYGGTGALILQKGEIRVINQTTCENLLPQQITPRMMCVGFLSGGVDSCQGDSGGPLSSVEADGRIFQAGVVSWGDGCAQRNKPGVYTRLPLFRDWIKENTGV
The data set can be described thus: Inhibition of human recombinant matripase catalytic domain using H2N(EEdansyl)GKQLRVVNGG (KDabcyl)-NH2 as substrate by fluorometric analysis.

In the next data set the target is Serine protease hepsin (Homo sapiens, UniProt P05981). The data set can be described thus: Inhibition of human recombinant hepsin using H2N(EEdansyl)GKQLRVVNGG (KDabcyl)-NH2 as substrate by fluorometric analysis.
Chain of Serine protease hepsin (P05981 1-162 limits assumed): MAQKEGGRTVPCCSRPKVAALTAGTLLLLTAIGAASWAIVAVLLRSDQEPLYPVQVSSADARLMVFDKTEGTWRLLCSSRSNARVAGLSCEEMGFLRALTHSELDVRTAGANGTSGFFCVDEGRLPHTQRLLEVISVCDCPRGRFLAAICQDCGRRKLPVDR
Chain of Serine protease hepsin (P05981 163-417 limits assumed): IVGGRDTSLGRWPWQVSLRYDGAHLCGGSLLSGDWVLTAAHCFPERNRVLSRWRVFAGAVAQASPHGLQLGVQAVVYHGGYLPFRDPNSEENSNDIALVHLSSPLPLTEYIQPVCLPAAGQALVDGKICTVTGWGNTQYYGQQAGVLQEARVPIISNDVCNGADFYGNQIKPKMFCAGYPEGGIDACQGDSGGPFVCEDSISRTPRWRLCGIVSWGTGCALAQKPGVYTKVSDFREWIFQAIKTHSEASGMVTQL
Data set [2] concerns the target T2, Hepatocyte growth factor activator serine protease (Homo sapiens, UniProt Q04756).
T2 sequence (Q04756 whole entry): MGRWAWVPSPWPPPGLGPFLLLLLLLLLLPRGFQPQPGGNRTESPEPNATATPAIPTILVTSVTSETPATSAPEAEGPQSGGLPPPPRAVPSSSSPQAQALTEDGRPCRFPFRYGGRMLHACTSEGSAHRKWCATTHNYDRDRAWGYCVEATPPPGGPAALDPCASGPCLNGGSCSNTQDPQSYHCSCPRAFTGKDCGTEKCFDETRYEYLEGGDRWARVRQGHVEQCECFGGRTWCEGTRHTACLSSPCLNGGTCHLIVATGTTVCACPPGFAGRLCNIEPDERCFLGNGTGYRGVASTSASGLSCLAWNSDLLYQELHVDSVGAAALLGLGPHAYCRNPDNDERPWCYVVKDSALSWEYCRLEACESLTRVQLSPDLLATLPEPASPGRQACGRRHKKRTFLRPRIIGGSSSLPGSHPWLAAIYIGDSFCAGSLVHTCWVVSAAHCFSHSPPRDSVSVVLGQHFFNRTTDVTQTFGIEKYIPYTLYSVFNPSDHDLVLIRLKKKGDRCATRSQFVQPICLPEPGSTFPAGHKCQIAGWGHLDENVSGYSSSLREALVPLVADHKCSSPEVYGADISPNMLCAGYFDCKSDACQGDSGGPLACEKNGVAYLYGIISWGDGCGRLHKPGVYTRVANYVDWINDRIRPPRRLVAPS
The data set can be described thus: Inhibition of human recombinant hepatocyte growth factor activator using H2N(EEdansyl)GKQLRVVNGG (KDabcyl)-NH2 as substrate by fluorometric analysis. It is filed as single protein.

In the next data set the target is Trypsin (Homo sapiens, UniProt P07477+P07478+P35030). The data set can be described thus: Inhibition of human recombinant trypsin using H2N(EEdansyl)GKQLRVVNGG (KDabcyl)-NH2 as substrate by fluorometric analysis. Type of data set: protein assay.
In a further data set the target is Prothrombin (Homo sapiens, UniProt P00734). The data set can be described thus: Inhibition of human recombinant thrombin using H2N(EEdansyl)GKQLRVVNGG (KDabcyl)-NH2 as substrate by fluorometric analysis.
For the next data set, the target named is Coagulation factor X (Homo sapiens, UniProt P00742). The data set can be described thus: Inhibition of human recombinant factor 10a using H2N(EEdansyl)GKQLRVVNGG (KDabcyl)-NH2 as substrate by fluorometric analysis.
Chain of Coagulation factor X (P00742 41-179 limits assumed): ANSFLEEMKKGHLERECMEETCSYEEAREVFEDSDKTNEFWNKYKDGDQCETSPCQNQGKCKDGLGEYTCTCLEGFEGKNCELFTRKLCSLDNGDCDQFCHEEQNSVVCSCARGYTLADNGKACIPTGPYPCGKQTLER
Chain of Coagulation factor X (P00742 235-488 limits assumed): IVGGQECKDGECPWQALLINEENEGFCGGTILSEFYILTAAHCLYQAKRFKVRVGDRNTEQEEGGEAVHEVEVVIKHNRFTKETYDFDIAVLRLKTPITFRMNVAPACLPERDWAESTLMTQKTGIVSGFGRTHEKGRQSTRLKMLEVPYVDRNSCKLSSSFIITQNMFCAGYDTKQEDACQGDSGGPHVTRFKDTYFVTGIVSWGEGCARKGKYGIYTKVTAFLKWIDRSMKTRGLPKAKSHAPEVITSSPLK
The target in data set [3] is Hepatocyte growth factor activator/Serine protease hepsin/Suppressor of tumorigenicity 14 protein (Homo sapiens) (UniProt Q9Y5Y6+P05981+Q04756). The data set can be described thus: Inhibition of matripase/hepsin/hepatocyte growth factor activator-mediated HGF activation in human 18Co fibroblasts assessed as scattering of human DU145 cells after 24 hrs by crystal violet staining method. It is filed as cell-based.
Chain of Hepatocyte growth factor activator/Serine protease hepsin/Suppressor of tumorigenicity 14 protein (Homo sapiens) (P05981 whole entry, looked up, one chain of several): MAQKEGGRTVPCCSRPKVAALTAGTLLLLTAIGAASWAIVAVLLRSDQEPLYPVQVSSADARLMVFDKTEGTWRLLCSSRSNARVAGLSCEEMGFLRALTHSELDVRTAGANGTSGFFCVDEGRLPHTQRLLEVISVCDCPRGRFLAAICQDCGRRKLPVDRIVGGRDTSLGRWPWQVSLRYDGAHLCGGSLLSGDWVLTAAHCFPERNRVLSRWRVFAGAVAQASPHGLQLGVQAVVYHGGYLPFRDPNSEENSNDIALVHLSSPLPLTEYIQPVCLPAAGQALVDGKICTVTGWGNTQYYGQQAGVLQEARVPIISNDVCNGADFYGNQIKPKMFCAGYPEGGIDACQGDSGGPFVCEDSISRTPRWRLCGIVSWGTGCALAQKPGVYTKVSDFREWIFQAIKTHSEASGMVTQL

The nature of data set [4]: Kinetic solubility of the compound at pH 7.4. Type of data set: physicochemical. The conditions noted are these: buffer, read-out: Kinetic_solubility.
Data set [5] can be described thus: Lipophilicity, logD of the compound at pH 7.4 by shake-flask method. Type of data set: physicochemical. Conditions: buffer.
Data set [6] in a line: Half life in human liver microsomes by LC/MS analysis. It is filed as ADME. (In general: Liver microsomes are a subcellular fraction often used to study metabolism.)
Data set [7] in a line: Half life in mouse liver microsomes by LC/MS analysis. It is filed as ADME.
Data set [8] can be described thus: Half life in mouse at 1 mg/kg, iv. It is filed as ADME, organism-based. Conditions: in vivo.
Data set [9] in a line: Clearance in mouse at 1 mg/kg, iv. Type of data set: ADME, organism-based. Conditions: in vivo.
Data set [10] in a line: Volume of distribution in mouse at 1 mg/kg, iv. It is filed as ADME, organism-based. The conditions noted are these: in vivo.
Data set [11] can be described thus: AUC in mouse at 1 mg/kg, iv. It is filed as ADME, organism-based. Conditions: in vivo.
Data set [12] is described as follows: Cmax in mouse at 5 mg/kg, po. Type of data set: ADME, organism-based. Further details: dose 5 mg/kg, route oral. The conditions noted are these: in vivo.
The nature of data set [13]: AUC in mouse at 5 mg/kg, po. Type of data set: ADME, organism-based. Conditions: in vivo.
A short description of data set [14]: Oral bioavailability in mouse at 5 mg/kg. It is filed as ADME, organism-based. Conditions: in vivo.

Values after ≈ are worked out from the molar mass of the structure shown.

In general, Ki refers to the dissociation constant of the complex between target and ligand, obtained from inhibition or displacement. Usually logD stands for lipophilicity at a set pH, counting ionised and neutral species. Low values mean a more hydrophilic compound, high ones a more lipophilic compound. A word on the half-life: it is the time in which the quantity being followed falls by half. High values mean slow decline, low ones rapid decline. A word on the clearance: it is the rate of elimination divided by the concentration. A lower clearance goes with a low capacity for elimination. By Vd is commonly meant the apparent volume that relates the amount in the body to the concentration in plasma or blood. Low readings indicate confinement near the circulation, high ones extensive tissue distribution. One may read the AUC as the area under the concentration-time curve, a measure of exposure. The term Cmax denotes the maximum level reached in the sampled fluid or tissue. Broadly, the bioavailability is the share of a dose that reaches the circulation, judged against a reference dose that is usually intravenous. With `CC1CN(CC2CCN(Cc3ccccc3)CC2)C(=O)N(c2cccc(C(=N)N)c2)C1` (stereo not drawn), the inhibitory constant (Ki) was found to be 530 nM in [1]; 540 nM at Serine protease hepsin; 480 nM in data set [2]; 430 nM at Trypsin; 11600 nM on Prothrombin; 380 nM at Coagulation factor X. The inhibition entry in data set [3] is “Dose-dependent effect”. Further, the solubility kinetic in data set [4] was 91.6 µM (≈ 38.4 µg/mL). The logD in data set [5] is -0.49. Further, the half-life in data set [6] was 2.7 h; in data set [7], 4.93 h; in data set [8], 5.8 h. This molecule also showed a clearance in data set [9] of 38 mL/min/kg. In [10], this molecule came in with a Vd of 4.49 L/kg. The values for the AUC in data set [11] and in data set [13] were 414 ng·h/mL and 3.31 ng·h/mL, respectively. The peak concentration (Cmax) in data set [12] was determined as 4.45 ng/mL. For the same molecule, the bioavailability in [14] was less than 1%.
